Measured values: patent US20240269139A1, “COMPOUNDS FOR TARGETED PROTEIN DEGRADATION OF KINASES” (DANA-FARBER CANCER INSTITUTE, INC., priority 2020, published 2024)
Where two headings read alike, the source gives them in different places.

Legend:
[1] = target: T1, protein kinases (human kinome) (Homo sapiens, UniProt O43318); assay type: cell-based; conditions: MAP3K7 (O43318)
T1 sequence (O43318 1-606): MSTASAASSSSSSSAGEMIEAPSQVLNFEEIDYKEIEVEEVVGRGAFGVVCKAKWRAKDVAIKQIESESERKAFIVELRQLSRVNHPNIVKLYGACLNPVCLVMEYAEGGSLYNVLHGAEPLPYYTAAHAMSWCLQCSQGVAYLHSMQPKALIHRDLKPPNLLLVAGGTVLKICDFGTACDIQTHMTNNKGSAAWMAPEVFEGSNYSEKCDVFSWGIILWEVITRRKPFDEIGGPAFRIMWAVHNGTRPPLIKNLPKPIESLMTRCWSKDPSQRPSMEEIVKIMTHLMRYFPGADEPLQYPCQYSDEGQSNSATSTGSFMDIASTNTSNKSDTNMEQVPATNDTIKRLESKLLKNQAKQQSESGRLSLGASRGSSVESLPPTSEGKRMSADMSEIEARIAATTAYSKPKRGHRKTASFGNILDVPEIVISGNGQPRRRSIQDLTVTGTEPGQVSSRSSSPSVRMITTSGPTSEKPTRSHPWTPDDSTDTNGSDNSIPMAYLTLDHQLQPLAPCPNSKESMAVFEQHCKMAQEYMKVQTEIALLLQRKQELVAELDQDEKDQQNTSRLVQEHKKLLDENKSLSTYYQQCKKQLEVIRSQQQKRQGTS

MOLT-4 cells = assay: RNA sequencing of kinase transcript levels; assay type: cell-based, H. sapiens; conditions: MOLT-4, 1 μM
Procedure: With long treatment times (>8 h), it is difficult to distinguish direct degradation of targets from down-regulation caused by downstream or secondary effects.
MOLT-4 cells were seeded into 24 T25 flasks with 10 mL of culture at 10^6 cells/mL prior to compound treatment. […] Cells were harvested using CellStripper™ Dissociation reagent (Corning®), washed twice with PBS, and followed by snap freezing in liquid nitrogen. Total RNA was isolated from cell pellets using the RNeasy® Mini Kit (Qiagen®) following the manufacturer's directions. For quality control, RNA concentration and rRNA ratio (28S/18S) were measured using an Agilent 2100 Bioanalyzer. Samples were submitted to BGI Group for RNA-seq library preparation and Next Generation Sequencing using the BGISEQ-500 platform producing 50 base-pair single-end reads. Sequencing reads were aligned to the human genome (BSgenome.Hsapiens.UCSC.hg19 Bioconductor package, using splicedAlignment=FALSE) and quantified at the level of genes (TxDb.Hsapiens.UCSC.hg19.knownGene Bioconductor package) using the QuasR package with default parameters (Gaidatzis et al., Bioinformatics 31(7):1130-1132 (2015)). Expressed genes were identified using the edgeR Bioconductor package (Robinson et al., Bioinformatics 26(1):139-140 (2010)).

SMILES	logFC ([1]; experiment wp056)	logFC ([1]; experiment wp056, direction down)	logFC ([1]; experiment wp103)	logFC ([1]; experiment wp103, direction down)	logFC ([1]; experiment wp105)	logFC ([1]; experiment wp105, direction down)	logFC ([1]; experiment wp107)	logFC ([1]; experiment wp107, direction down)	logFC ([1]; experiment wp172)	logFC ([1]; experiment wp172, direction down)	transcript levels (MOLT-4 cells; 8- and 12-h time points)	transcript levels (MOLT-4 cells; up until the 4-h time point)
Cc1ccc(C(=O)Nc2ccc(CN3CCN(CCCOCCOCCOCCNC(=O)COc4cccc5c4C(=O)N(C4CCC(=O)NC4=O)C5=O)CC3)c(C(F)(F)F)c2)cc1C#Cc1cnc2cccnn12 (stereo not drawn) [SB1.G.187]	−1.003	−1.003	−1.374	−1.374	−1.031	−1.031	−1.33	−1.33	−0.5772	−0.5772	–	–
CC(C)S(=O)(=O)c1ccccc1Nc1nc(Nc2ccc(N3CCN(CCOCCNC(=O)CNc4cccc5c4C(=O)N(C4CCC(=O)NC4=O)C5=O)CC3)cc2)ncc1Cl (stereo not drawn) [SK-3-91]	–	–	–	–	–	–	–	–	–	–	complete transcriptional collapse	largely unchanged
